Experimental findings from ChEMBL document CHEMBL1201862, “PubChem BioAssay data set” (2004) are described below.

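Test compounds were applied to cells in 96-well plates for 48 hours at 5 doses. The concentration for 50% growth inhibition is given as GI50.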 Calls of active or inactive are those of the source. Cut-off read from the data, not from the text of the source: active = GI50 up to about 1.1 µM and inactive = higher.

Test systems include KM12; A549; SNB-19; SK-OV-3; LOX IMVI; SK-MEL-2; CCRF-CEM; NCI-H23; UACC-62; HCC 2998; EKVX; SF-268; SK-MEL-5; COLO 205; CAKI-1; UO-31; SF-539; OVCAR-4; HOP-62; MOLT-4.
Holding throughout (assay): growth of human tumour cells (NCI), 48 h

For `COc1cccc2c1CCc1cc3c(N)nc(N)nc3nc1-2`, the GI50 in the experiment with KM12 was 5.47 µM (inactive); in the experiment with A549 it was 2.45 µM (inactive); in the experiment on SNB-19, 5.45 µM (inactive); in the experiment on SK-OV-3, 17.7 µM (inactive); with LOX IMVI, 0.34 µM (active); with SK-MEL-2, 13.3 µM (inactive). Besides, the GI50 is 2.55 µM (inactive) in the experiment with CCRF-CEM; 5.06 µM (inactive) in the experiment on NCI-H23; 7.23 µM (inactive) in the experiment with UACC-62; 2.29 µM (inactive) in the experiment on HCC 2998; 2.12 µM (inactive) in the experiment on EKVX; 6.73 µM (inactive) with SF-268. Further, the GI50 with SK-MEL-5 is 3.09 µM (inactive); with COLO 205, 4.02 µM (inactive); in the experiment on CAKI-1 it was 5.45 µM (inactive); in the experiment on UO-31 it was 3.21 µM (inactive); with SF-539 it was 1.79 µM (inactive); in the experiment on OVCAR-4, 6.22 µM (inactive). In addition, the results for the GI50 with HOP-62 and in the experiment on MOLT-4 were 5.4 µM (inactive) and 0.653 µM (active), respectively.

`Cn1cc(-c2cnc(-c3cn(C)c4ccccc34)cn2)c2ccccc21`: the GI50 in the experiment on KM12 was 0.0471 µM (active); in the experiment with A549, 6.21 µM (inactive); in the experiment on SNB-19, 4.71 µM (inactive); in the experiment with SK-OV-3, 14.6 µM (inactive); in the experiment on LOX IMVI, 5.2 µM (inactive); in the experiment with SK-MEL-2, 5.87 µM (inactive). Besides, the GI50 in the experiment on CCRF-CEM is 0.448 µM (active); with NCI-H23, 4.25 µM (inactive); with UACC-62, 2.86 µM (inactive); in the experiment on HCC 2998 it was 5.61 µM (inactive); in the experiment on EKVX, 10.1 µM (inactive); with SF-268, 5.48 µM (inactive). The GI50 is 0.288 µM (active) in the experiment with SK-MEL-5; 3.26 µM (inactive) in the experiment with COLO 205; 6.67 µM (inactive) in the experiment with CAKI-1; 4.79 µM (inactive) in the experiment on UO-31; 3.37 µM (inactive) in the experiment with SF-539; 11.6 µM (inactive) in the experiment with OVCAR-4. Moreover, the GI50 in the experiment with HOP-62 was 6.59 µM (inactive); in the experiment on MOLT-4, 5.66 µM (inactive).

As for `CCOC(=O)/C(=C\c1ccc(O)c(OC)c1)C(=O)c1ccccc1`, the GI50 in the experiment on KM12 is 11.6 µM (inactive); with A549 it was 18.2 µM (inactive); in the experiment on SNB-19, 16.5 µM (inactive); in the experiment with SK-OV-3 it was > 42.8 µM (inactive); with LOX IMVI, 7.21 µM (inactive); with SK-MEL-2 it was 12.5 µM (inactive). Further, the GI50 in the experiment with CCRF-CEM was 7.5 µM (inactive); in the experiment on NCI-H23, 8.22 µM (inactive); in the experiment with UACC-62 it was 13.7 µM (inactive); with HCC 2998 it was 19.6 µM (inactive); in the experiment with EKVX, > 38.9 µM (inactive); in the experiment on SF-268, 9.62 µM (inactive). The GI50 with SK-MEL-5 was 13.3 µM (inactive); in the experiment on COLO 205 it was 36.1 µM (inactive); in the experiment with CAKI-1, 23.9 µM (inactive); in the experiment with UO-31, 23 µM (inactive); in the experiment on SF-539 it was 13.8 µM (inactive); in the experiment with OVCAR-4, 13.9 µM (inactive). For the same molecule, the values for the GI50 with HOP-62 and in the experiment on MOLT-4 were > 10 µM (inactive) and 12.4 µM (inactive), respectively.

As for `COc1ccc(/C=C/c2ccnc3ccccc23)cc1OC`, the GI50 in the experiment with KM12 is 14.7 µM (inactive); with A549, 15.1 µM (inactive); in the experiment with SNB-19 it was 17.4 µM (inactive); with SK-OV-3, 27.7 µM (inactive); in the experiment on LOX IMVI it was 10 µM (inactive); in the experiment with SK-MEL-2 it was 19.4 µM (inactive). In addition, the GI50 is 13.2 µM (inactive) in the experiment on CCRF-CEM; 14.9 µM (inactive) in the experiment with NCI-H23; 14.9 µM (inactive) in the experiment on UACC-62; 39 µM (inactive) in the experiment on HCC 2998; 14.6 µM (inactive) in the experiment with EKVX; 14 µM (inactive) in the experiment with SF-268. The GI50 in the experiment on SK-MEL-5 is 14.8 µM (inactive); in the experiment with COLO 205, 12.6 µM (inactive); with CAKI-1, 15.8 µM (inactive); in the experiment on UO-31, 0.186 µM (active); in the experiment on SF-539, 15.8 µM (inactive); in the experiment with OVCAR-4 it was 12.3 µM (inactive). Besides, the figures for the GI50 in the experiment with HOP-62 and in the experiment with MOLT-4 were 15.1 µM (inactive) and 19.1 µM (inactive), respectively.

Turning to `CCO/N=C(/CC)c1ccc(Br)s1`, the GI50 in the experiment on KM12 is > 100 µM (inactive); in the experiment with A549, > 100 µM (inactive); in the experiment on SNB-19, > 100 µM (inactive); in the experiment on SK-OV-3, > 100 µM (inactive); in the experiment on LOX IMVI, 80.5 µM (inactive); with SK-MEL-2, > 100 µM (inactive). Also, the GI50 in the experiment with CCRF-CEM, in the experiment with NCI-H23, with UACC-62, in the experiment with HCC 2998, in the experiment on EKVX and with SF-268 was > 100 µM (inactive) in each case. Further, the GI50 in the experiment with SK-MEL-5, with COLO 205, with CAKI-1, in the experiment with UO-31, with SF-539 and in the experiment on OVCAR-4 was > 100 µM (inactive) each time. Besides, the GI50 with HOP-62 is > 100 µM (inactive); in the experiment with MOLT-4, 53.5 µM (inactive).

On to `COc1ccc(/C(=N/OCCCC(=O)O)c2cccs2)cc1`, for which the GI50 in the experiment with KM12, in the experiment on A549, in the experiment with SNB-19, in the experiment on SK-OV-3, in the experiment with LOX IMVI and with SK-MEL-2 was > 100 µM (inactive) throughout. Besides, the GI50 with CCRF-CEM, in the experiment with NCI-H23, with UACC-62, in the experiment on HCC 2998, in the experiment on EKVX and in the experiment on SF-268 was > 100 µM (inactive) throughout. In addition, the GI50 in the experiment with SK-MEL-5, with COLO 205, in the experiment with CAKI-1, with UO-31, in the experiment with SF-539 and with OVCAR-4 was > 100 µM (inactive) each time. The GI50 in the experiment with HOP-62 and in the experiment on MOLT-4 was > 100 µM (inactive) each time.

As to `CCOc1cc2c(cc1O)C(O)C[C@@H]1[C@@H]2CC[C@]2(C)[C@@H](O)CC[C@@H]12` (stereo not given in full), the GI50 with KM12 was 3.24 µM (inactive); in the experiment with A549, 0.231 µM (active); in the experiment on SNB-19 it was 0.465 µM (active); in the experiment with SK-OV-3, 0.493 µM (active); in the experiment on LOX IMVI, 0.299 µM (active); with SK-MEL-2, > 100 µM (inactive). Further, the GI50 in the experiment on CCRF-CEM is 0.298 µM (active); with NCI-H23 it was 0.766 µM (active); in the experiment on UACC-62, 0.284 µM (active); in the experiment with HCC 2998 it was 3.03 µM (inactive); in the experiment on EKVX it was 1.32 µM (inactive); in the experiment with SF-268, 4.16 µM (inactive). Besides, the GI50 in the experiment on SK-MEL-5 is 0.236 µM (active); in the experiment with COLO 205, 19.3 µM (inactive); with CAKI-1 it was 0.514 µM (active); with UO-31, 0.767 µM (active); in the experiment with SF-539, 0.28 µM (active); with OVCAR-4, > 100 µM (inactive). Further, the GI50 in the experiment with HOP-62 was 0.675 µM (active); with MOLT-4 it was 0.692 µM (active).

On to `O=C1C(Cl)C(c2cccc(Br)c2)N1c1c(O)c(Cl)cc(Br)c1Cl` (stereo not given), for which the GI50 is 16.7 µM (inactive) in the experiment on KM12; 17.3 µM (inactive) in the experiment on A549; 1.38 µM (inactive) with SNB-19; 18.3 µM (inactive) in the experiment with SK-OV-3; 14.5 µM (inactive) in the experiment on LOX IMVI; 7.08 µM (inactive) in the experiment with SK-MEL-2. Also, the GI50 was 14.6 µM (inactive) in the experiment with CCRF-CEM; 16.6 µM (inactive) in the experiment on NCI-H23; 14.5 µM (inactive) in the experiment with UACC-62; 11.1 µM (inactive) in the experiment on HCC 2998; 17 µM (inactive) in the experiment on EKVX; 14.8 µM (inactive) in the experiment with SF-268. Besides, the GI50 is 14.2 µM (inactive) with SK-MEL-5; 8.63 µM (inactive) with COLO 205; 19.3 µM (inactive) in the experiment with CAKI-1; 16.8 µM (inactive) in the experiment with UO-31; 15.6 µM (inactive) in the experiment on SF-539; 12.3 µM (inactive) in the experiment on OVCAR-4. The GI50 with HOP-62 is 13.8 µM (inactive); in the experiment on MOLT-4 it was 13 µM (inactive).

In the case of `CC1(C)C(=O)/C=C\C(=O)C(C)(C)C2=CC=C(O2)C(C)(C)C(=O)C(Br)C(Br)C(=O)C(C)(C)C2=CC=C1O2` (stereo not given), the GI50 is 71.8 µM (inactive) with KM12; > 100 µM (inactive) with A549; > 100 µM (inactive) in the experiment on SNB-19; > 100 µM (inactive) with SK-OV-3; 23 µM (inactive) in the experiment on LOX IMVI; 99.1 µM (inactive) in the experiment with SK-MEL-2. The GI50 in the experiment with CCRF-CEM is 1.93 µM (inactive); in the experiment on NCI-H23 it was 48.5 µM (inactive); in the experiment with UACC-62 it was 24 µM (inactive); in the experiment with HCC 2998 it was > 100 µM (inactive); in the experiment with EKVX it was > 100 µM (inactive); in the experiment with SF-268, > 66.5 µM (inactive). Also, the GI50 is 45 µM (inactive) with SK-MEL-5; > 81.8 µM (inactive) in the experiment on COLO 205; 58.6 µM (inactive) in the experiment on CAKI-1; > 92.3 µM (inactive) in the experiment on UO-31; > 68.9 µM (inactive) in the experiment with SF-539; > 74.5 µM (inactive) with OVCAR-4. For the same molecule, the GI50 was > 100 µM (inactive) with HOP-62 and 3.3 µM (inactive) in the experiment with MOLT-4.

As to `Oc1ncc(N(CCCl)CCCl)c(O)n1` [URACIL MUSTARD], the GI50 is 89.3 µM (inactive) in the experiment with KM12; 23.3 µM (inactive) in the experiment with A549; 42.1 µM (inactive) with SNB-19; 47.2 µM (inactive) in the experiment with SK-OV-3; 14.1 µM (inactive) in the experiment on LOX IMVI; > 97.3 µM (inactive) with SK-MEL-2. Further, the GI50 is 2.1 µM (inactive) in the experiment with CCRF-CEM; 15 µM (inactive) in the experiment with NCI-H23; 6.7 µM (inactive) with UACC-62; 62.7 µM (inactive) in the experiment with HCC 2998; 85.7 µM (inactive) in the experiment with EKVX; 12.7 µM (inactive) with SF-268. Also, the GI50 is 41.8 µM (inactive) in the experiment with SK-MEL-5; 63 µM (inactive) with COLO 205; 4.33 µM (inactive) in the experiment with CAKI-1; 47.3 µM (inactive) in the experiment on UO-31; 11.7 µM (inactive) in the experiment on SF-539; 83 µM (inactive) with OVCAR-4. In addition, the GI50 was 15 µM (inactive) with HOP-62 and 1.59 µM (inactive) in the experiment with MOLT-4.
